Experiments:
Format in all cases: in vivo
[1] = test system: redroot pigweed (Amaranthus retroflexus, AMARE); assay: Pre-emerge test, greenhouse herbicide activity screening; details: pre-emerge, phytotoxicity rating 0-100 at 14 days after application
How it was run: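 Compounds in acetone were track-sprayed at 187 l/ha, 15–1000 g ai/ha, onto sandy loam pots. Pre-emerge seeds were sown one day before spraying, with surface watering afterwards. Post-emerge plants were at the 2–3 leaf stage and sprayed with 0.25% v/v non-ionic surfactant. Injury was rated 0–100 at 14 days.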

[2] = test system: barnyardgrass (Echinochloa crus-galli, ECHCG); assay: as above; details: pre-emerge, phytotoxicity rating 0-100 at 14 days after application
How it was run: (§1)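 Herbicidal damage is scored 0 (none) to 100 (complete plant death) two weeks after a simulated field spray. Rates span 15–1000 g ai/ha, delivered in acetone at 187 l/ha. For post-emergence treatments, plants have 2–3 leaves and the spray carries 0.25% v/v non-ionic surfactant.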

[3] = test system: green foxtail (Setaria viridis, SETVI); assay: as above; details: pre-emerge, phytotoxicity rating 0-100 at 14 days after application
How it was run: as §1

[4] = test system: ivyleaf morningglory (Ipomoea hederacea, IPOHE); assay: as above; details: pre-emerge, phytotoxicity rating 0-100 at 14 days after application
How it was run: as §1

[5] = test system: johnsongrass (Sorghum halepense, SORHA); assay: as above; details: pre-emerge, phytotoxicity rating 0-100 at 14 days after application
How it was run: as §1

[6] = test system: lambsquarters (Chenopodium album, CHEAL); assay: as above; details: pre-emerge, phytotoxicity rating 0-100 at 14 days after application
How it was run: as §1

[7] = test system: large crabgrass (Digitaria sanguinalis, DIGSA); assay: as above; details: pre-emerge, phytotoxicity rating 0-100 at 14 days after application
How it was run: as §1

[8] = test system: sicklepod (Cassia obtusifolia, CASOB); assay: as above; details: pre-emerge, phytotoxicity rating 0-100 at 14 days after application
How it was run: as §1

[9] = test system: velvetleaf (Abutilon theophrasti, ABUTH); assay: as above; details: pre-emerge, phytotoxicity rating 0-100 at 14 days after application
How it was run: as §1

[10] = test system: field corn (Zea mays L., var. Dekalb 535, CORN); assay: Pre-emerge test, crop safety; details: crop damage, pre-emerge, phytotoxicity rating 0-100 at 14 days after application
How it was run: (§2)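 Compounds in acetone were track-sprayed at 15-1000 g ai/ha (187 l/ha) on sandy loam pots: pre-emerge one day after seeding, post-emerge at 2-3 leaf stage with 0.25% v/v non-ionic surfactant. Phytotoxicity was rated 14 days later on a 0 (no damage) to 100 (complete death) scale.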

[11] = test system: upland rice (Oryza sp., var. Tebonnet, RICE); assay: Pre-emerge test, crop safety; details: crop damage, pre-emerge, phytotoxicity rating 0-100 at 14 days after application
How it was run: as §2

[12] = test system: barnyardgrass (Echinochloa crus-galli, ECHCG); assay: Post-emerge test, greenhouse herbicide activity screening; details: post-emerge, phytotoxicity rating 0-100 at 14 days after application
How it was run: (§3)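 Applied at 15–1000 g ai/ha from acetone in 187 l/ha spray volume. Post-emergence applications included 0.25% v/v non-ionic surfactant and reached plants sown 8–21 days before. Pre-emergence applications were incorporated by surface watering. Efficacy or crop damage was rated on a 0–100 scale after 14 days.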

[13] = test system: green foxtail (Setaria viridis, SETVI); assay: as above; details: post-emerge, phytotoxicity rating 0-100 at 14 days after application
How it was run: as §3

[14] = test system: ivyleaf morningglory (Ipomoea hederacea, IPOHE); assay: as above; details: post-emerge, phytotoxicity rating 0-100 at 14 days after application
How it was run: as §3

[15] = test system: johnsongrass (Sorghum halepense, SORHA); assay: as above; details: post-emerge, phytotoxicity rating 0-100 at 14 days after application
How it was run: as §3

[16] = test system: lambsquarters (Chenopodium album, CHEAL); assay: as above; details: post-emerge, phytotoxicity rating 0-100 at 14 days after application
How it was run: as §3

[17] = test system: large crabgrass (Digitaria sanguinalis, DIGSA); assay: as above; details: post-emerge, phytotoxicity rating 0-100 at 14 days after application
How it was run: as §3

[18] = test system: redroot pigweed (Amaranthus retroflexus, AMARE); assay: as above; details: post-emerge, phytotoxicity rating 0-100 at 14 days after application
How it was run: as §3

[19] = test system: sicklepod (Cassia obtusifolia, CASOB); assay: as above; details: post-emerge, phytotoxicity rating 0-100 at 14 days after application
How it was run: as §3

[20] = test system: velvetleaf (Abutilon theophrasti, ABUTH); assay: as above; details: post-emerge, phytotoxicity rating 0-100 at 14 days after application
How it was run: as §3

[21] = test system: field corn (Zea mays L., var. Dekalb 535, CORN); assay: Post-emerge test, crop safety; details: post-emerge, crop damage rating 0-100 at 14 days after application
How it was run: as §1

[22] = test system: upland rice (Oryza sp., var. Tebonnet, RICE); assay: Post-emerge test, crop safety; details: post-emerge, crop damage rating 0-100 at 14 days after application
How it was run: as §1

## COc1ccccc1COC(=O)Nc1c(C)c(Cl)cc(F)c1-n1c(=O)cc(C(F)(F)F)n(C)c1=O [4-58]
[1]; rate 63 g ai/ha
  Pre-emerge Herbicidal Activity AMARE: 100
[1]; rate 250 g ai/ha
  Pre-emerge Herbicidal Activity AMARE: 100
[2]; rate 63 g ai/ha
  Pre-emerge Herbicidal Activity ECHCG: 30
[2]; rate 250 g ai/ha
  Pre-emerge Herbicidal Activity ECHCG: 70
[3]; rate 63 g ai/ha
  Pre-emerge Herbicidal Activity SETVI: 80
[3]; rate 250 g ai/ha
  Pre-emerge Herbicidal Activity SETVI: 100
[4]; rate 63 g ai/ha
  Pre-emerge Herbicidal Activity IPOHE: 30
[4]; rate 250 g ai/ha
  Pre-emerge Herbicidal Activity IPOHE: 100
[5]; rate 63 g ai/ha
  Pre-emerge Herbicidal Activity SORHA: 20
[5]; rate 250 g ai/ha
  Pre-emerge Herbicidal Activity SORHA: 60
[6]; rate 63 g ai/ha
  Pre-emerge Herbicidal Activity CHEAL: 100
[6]; rate 250 g ai/ha
  Pre-emerge Herbicidal Activity CHEAL: 100
[7]; rate 63 g ai/ha
  Pre-emerge Herbicidal Activity DIGSA: 30
[7]; rate 250 g ai/ha
  Pre-emerge Herbicidal Activity DIGSA: 100
[8]; rate 63 g ai/ha
  Pre-emerge Herbicidal Activity CASOB: 70
[8]; rate 250 g ai/ha
  Pre-emerge Herbicidal Activity CASOB: 100
[9]; rate 63 g ai/ha
  Pre-emerge Herbicidal Activity ABUTH: 100
[9]; rate 250 g ai/ha
  Pre-emerge Herbicidal Activity ABUTH: 100
[10]; rate 63 g ai/ha
  Pre-emerge Herbicidal Activity CORN: 0
[10]; rate 250 g ai/ha
  Pre-emerge Herbicidal Activity CORN: 25
[11]; rate 63 g ai/ha
  Pre-emerge Herbicidal Activity RICE: 30
[11]; rate 250 g ai/ha
  Pre-emerge Herbicidal Activity RICE: 70
[12]; 63 g ai/ha
  Post-emerge Herbicidal Activity ECHCG: 30
[12]; 250 g ai/ha
  Post-emerge Herbicidal Activity ECHCG: 40
[13]; 63 g ai/ha
  Post-emerge Herbicidal Activity SETVI: 50
[13]; 250 g ai/ha
  Post-emerge Herbicidal Activity SETVI: 90
[14]; 63 g ai/ha
  Post-emerge Herbicidal Activity IPOHE: 100
[14]; 250 g ai/ha
  Post-emerge Herbicidal Activity IPOHE: 100
[15]; 63 g ai/ha
  Post-emerge Herbicidal Activity SORHA: 30
[15]; 250 g ai/ha
  Post-emerge Herbicidal Activity SORHA: 50
[16]; 63 g ai/ha
  Post-emerge Herbicidal Activity CHEAL: 100
[16]; 250 g ai/ha
  Post-emerge Herbicidal Activity CHEAL: 100
[17]; 63 g ai/ha
  Post-emerge Herbicidal Activity DIGSA: 20
[17]; 250 g ai/ha
  Post-emerge Herbicidal Activity DIGSA: 60
[18]; 63 g ai/ha
  Post-emerge Herbicidal Activity AMARE: 100
[18]; 250 g ai/ha
  Post-emerge Herbicidal Activity AMARE: 100
[19]; 63 g ai/ha
  Post-emerge Herbicidal Activity CASOB: 90
[19]; 250 g ai/ha
  Post-emerge Herbicidal Activity CASOB: 100
[20]; 63 g ai/ha
  Post-emerge Herbicidal Activity ABUTH: 100
[20]; 250 g ai/ha
  Post-emerge Herbicidal Activity ABUTH: 100
[21]; 63 g ai/ha
  Post-emerge Herbicidal Activity CORN: 30
[21]; 250 g ai/ha
  Post-emerge Herbicidal Activity CORN: 70
[22]; 63 g ai/ha
  Post-emerge Herbicidal Activity RICE: 60
[22]; 250 g ai/ha
  Post-emerge Herbicidal Activity RICE: 75

## COc1cccc(OC)c1OC(=O)Nc1c(C)c(Cl)cc(F)c1-n1c(=O)cc(C(F)(F)F)n(C)c1=O [4-59]
[1]; rate 63 g ai/ha
  Pre-emerge Herbicidal Activity AMARE: 100
[1]; rate 250 g ai/ha
  Pre-emerge Herbicidal Activity AMARE: 100
[2]; rate 63 g ai/ha
  Pre-emerge Herbicidal Activity ECHCG: 10
[2]; rate 250 g ai/ha
  Pre-emerge Herbicidal Activity ECHCG: 90
[3]; rate 63 g ai/ha
  Pre-emerge Herbicidal Activity SETVI: 30
[3]; rate 250 g ai/ha
  Pre-emerge Herbicidal Activity SETVI: 90
[4]; rate 63 g ai/ha
  Pre-emerge Herbicidal Activity IPOHE: 95
[4]; rate 250 g ai/ha
  Pre-emerge Herbicidal Activity IPOHE: 100
[5]; rate 63 g ai/ha
  Pre-emerge Herbicidal Activity SORHA: 40
[5]; rate 250 g ai/ha
  Pre-emerge Herbicidal Activity SORHA: 95
[6]; rate 63 g ai/ha
  Pre-emerge Herbicidal Activity CHEAL: 100
[6]; rate 250 g ai/ha
  Pre-emerge Herbicidal Activity CHEAL: 100
[7]; rate 63 g ai/ha
  Pre-emerge Herbicidal Activity DIGSA: 40
[7]; rate 250 g ai/ha
  Pre-emerge Herbicidal Activity DIGSA: 100
[8]; rate 63 g ai/ha
  Pre-emerge Herbicidal Activity CASOB: 20
[8]; rate 250 g ai/ha
  Pre-emerge Herbicidal Activity CASOB: 90
[9]; rate 63 g ai/ha
  Pre-emerge Herbicidal Activity ABUTH: 100
[9]; rate 250 g ai/ha
  Pre-emerge Herbicidal Activity ABUTH: 100
[10]; rate 63 g ai/ha
  Pre-emerge Herbicidal Activity CORN: 5
[10]; rate 250 g ai/ha
  Pre-emerge Herbicidal Activity CORN: 80
[11]; rate 63 g ai/ha
  Pre-emerge Herbicidal Activity RICE: 0
[11]; rate 250 g ai/ha
  Pre-emerge Herbicidal Activity RICE: 70
[12]; 63 g ai/ha
  Post-emerge Herbicidal Activity ECHCG: 0
[12]; 250 g ai/ha
  Post-emerge Herbicidal Activity ECHCG: 20
[13]; 63 g ai/ha
  Post-emerge Herbicidal Activity SETVI: 0
[13]; 250 g ai/ha
  Post-emerge Herbicidal Activity SETVI: 30
[14]; 63 g ai/ha
  Post-emerge Herbicidal Activity IPOHE: 100
[14]; 250 g ai/ha
  Post-emerge Herbicidal Activity IPOHE: 100
[15]; 63 g ai/ha
  Post-emerge Herbicidal Activity SORHA: 0
[15]; 250 g ai/ha
  Post-emerge Herbicidal Activity SORHA: 30
[16]; 63 g ai/ha
  Post-emerge Herbicidal Activity CHEAL: 100
[16]; 250 g ai/ha
  Post-emerge Herbicidal Activity CHEAL: 100
[17]; 63 g ai/ha
  Post-emerge Herbicidal Activity DIGSA: 0
[17]; 250 g ai/ha
  Post-emerge Herbicidal Activity DIGSA: 20
[18]; 63 g ai/ha
  Post-emerge Herbicidal Activity AMARE: 90
[18]; 250 g ai/ha
  Post-emerge Herbicidal Activity AMARE: 100
[19]; 63 g ai/ha
  Post-emerge Herbicidal Activity CASOB: 30
[19]; 250 g ai/ha
  Post-emerge Herbicidal Activity CASOB: 60
[20]; 63 g ai/ha
  Post-emerge Herbicidal Activity ABUTH: 100
[20]; 250 g ai/ha
  Post-emerge Herbicidal Activity ABUTH: 100
[21]; 63 g ai/ha
  Post-emerge Herbicidal Activity CORN: 5
[21]; 250 g ai/ha
  Post-emerge Herbicidal Activity CORN: 25
[22]; 63 g ai/ha
  Post-emerge Herbicidal Activity RICE: 50
[22]; 250 g ai/ha
  Post-emerge Herbicidal Activity RICE: 60

— patent US6355799B1, “Substituted benzene compounds, process for their preparation, and herbicidal and defoliant compositions containing them” (ISK Americas Incorporated, priority 1997, dated 2002)
